In US20070128217A1 (priority 2003, published 2007):

Experiments:
[1] = tested on: antibodies in sera from SARS patients (sera 1a, 1b, 2, 6, 37, 62, London, SARS-yellow, SARS-green); format: binding, human; set-up: Binding of serum 6 to linear peptides of protein X1 of SARS-CoV Urbani / Binding of serum 37 to linear peptides of protein X1 of SARS-CoV Urbani / Binding of serum 6 to looped/cyclic peptide (PEPSCAN-ELISA) / Binding of serum 37 to looped/cyclic peptide (PEPSCAN-ELISA) / Binding of serum 37 to looped/cyclic peptides of protein X1 of SARS-CoV Urbani / Binding of serum 6 to linear peptides of protein X2 / Binding of serum 37 to linear peptides of protein X2 / Binding of serum 37 to looped/cyclic peptides of protein X2 of SARS-CoV Urbani / Binding of serum 6 to linear peptides of protein M of SARS-CoV Urbani / Binding of serum 37 to linear peptides of protein M of SARS-CoV Urbani / Binding of serum 6 to looped/cyclic peptides of protein M of SARS-CoV Urbani / Binding of serum 37 to looped/cyclic peptides of protein M of SARS-CoV Urbani / Binding of serum 6 to linear peptides of protein X3 of SARS-CoV Urbani / Binding of serum 37 to linear peptides of protein X3 of SARS-CoV Urbani / Binding of serum 37 to looped/cyclic peptides of protein X3 of SARS-CoV Urbani / Binding of serum 6 to linear peptides of protein X4 of SARS-CoV Urbani / Binding of serum 37 to linear peptides of protein X4 of SARS-CoV Urbani / Binding of serum 37 to looped/cyclic peptides of protein X4 of SARS-CoV Urbani / Binding of serum 6 to linear peptides of protein X5 of SARS-CoV Urbani / Binding of serum 37 to linear peptides of protein X5 of SARS-CoV Urbani / Binding of serum 37 to looped/cyclic peptides of protein X5 of SARS-CoV Urbani / Binding of serum 6 to linear peptides of protein N of SARS-CoV Urbani / Binding of serum 37 to linear peptides of protein N of SARS-CoV Urbani / Binding of serum 6 to linear peptide (PEPSCAN-ELISA) / Binding of serum 1a to looped/cyclic peptides of protein N of SARS-CoV Urbani / Binding of serum 1b to looped/cyclic peptides of protein N of SARS-CoV Urbani / Binding of serum 2 to looped/cyclic peptides of protein N of SARS-CoV Urbani / Binding of serum 6 to looped/cyclic peptides of protein N of SARS-CoV Urbani / Binding of serum 37 to looped/cyclic peptides of protein N of SARS-CoV Urbani / Binding of serum 62 to looped/cyclic peptides of protein N of SARS-CoV Urbani / Binding of serum London to looped/cyclic peptides of protein N of SARS-CoV Urbani / Binding of serum SARS-green to looped/cyclic peptides of protein N of SARS-CoV Urbani: unit not given here
[2] = tested on: control sera (pooled serum of ten healthy LUMC hospital workers; commercial negative donor pooled serum from the Dutch bloodbank); format: binding, human; set-up: Binding of Control serum LUMC to linear peptides / Binding of Control serum Blood-bank to linear peptides / Binding of Control serum LUMC to looped peptides / Binding of Control Serum Blood-Bank to Looped peptides / Binding of Control serum LUMC to linear peptides of the protein M of SARS-CoV Urbani / Binding of Control serum Blood-bank to linear peptides of the protein M of SARS-CoV Urbani / Binding of Control serum LUMC to looped peptides of the protein M of SARS-CoV Urbani / Binding of Control Serum Blood-Bank to Looped peptides of the protein M of SARS-CoV Urbani: unit not given here
[3] = tested on: rabbit serum obtained by immunizing a rabbit with the SARS-CoV strain Frankfurt 1; format: binding; set-up: Binding of a rabbit serum to linear peptides / Binding of a rabbit serum to looped peptides / Rabbit serum linear peptides / Rabbit serum looped peptides / Binding of a rabbit serum to linear peptides of protein N of SARS-CoV Urbani (Rabbit serum linear peptides) / Binding of a rabbit serum to looped/cyclic peptides of protein N of SARS-CoV Urbani (Rabbit serum looped peptides): unit not given here

**Q.** Which “Binding of serum 1a to linear peptides of protein M of SARS-CoV Urbani” value [1] does the source give for IVGLMWLSYFVASFR here?
**A.** Its value is 0.6.

**Q.** And the “Binding of serum 1a to looped/cyclic peptides of protein M of SARS-CoV Urbani” value [1]?
**A.** The value was 0.7.

**Q.** And the “Binding of serum 1b to linear peptides of protein M of SARS-CoV Urbani” value [1]?
**A.** The value was 0.4.

**Q.** What about the “Binding of serum 1b to looped/cyclic peptides of protein M of SARS-CoV Urbani” value [1] of the same sequence?
**A.** Its value is 0.5.

**Q.** What about the “Binding of serum 2 to linear peptides of protein M of SARS-CoV Urbani” value [1] of the same sequence?
**A.** The value was 0.5.

**Q.** What about the “Binding of serum 2 to looped/cyclic peptides of protein M of SARS-CoV Urbani” value [1] of the same sequence?
**A.** Its value is 1.0.

**Q.** What about the “Binding of serum 6 to linear peptides of protein M of SARS-CoV Urbani” value [1] of the same sequence?
**A.** Its value is 0.3.

**Q.** What about the “Binding of serum 6 to looped/cyclic peptides of protein M of SARS-CoV Urbani” value [1] of the same sequence?
**A.** The value was 0.7.

**Q.** And the “Binding of serum 37 to linear peptides of protein M of SARS-CoV Urbani” value [1]?
**A.** The value was 0.5.

**Q.** And the “Binding of serum 37 to looped/cyclic peptides of protein M of SARS-CoV Urbani” value [1]?
**A.** The value was 0.7.

**Q.** What about the “Binding of serum 62 to linear peptides of protein M of SARS-CoV Urbani” value [1] of the same sequence?
**A.** Its value is 0.7.

**Q.** And the “Binding of serum 62 to looped/cyclic peptides of protein M of SARS-CoV Urbani” value [1]?
**A.** The value was 0.7.

**Q.** And the “Binding of serum London to linear peptides of protein M of SARS-CoV Urbani” value [1]?
**A.** The value was 0.3.

**Q.** And the “Binding of serum London to looped/cyclic peptides of protein M of SARS-CoV Urbani” value [1]?
**A.** Its value is 0.2.

**Q.** What about the “Binding of serum SARS-green to linear peptides of protein M of SARS-CoV Urbani” value [1] of the same sequence?
**A.** Its value is 0.2.

**Q.** And the “Binding of serum SARS-green to looped/cyclic peptides of protein M of SARS-CoV Urbani” value [1]?
**A.** Its value is 0.1.

**Q.** What about the “Binding of serum SARS-yellow to linear peptides of protein M of SARS-CoV Urbani” value [1] of the same sequence?
**A.** Its value is 0.1.

**Q.** And the “Binding of serum SARS-yellow to looped/cyclic peptides of protein M of SARS-CoV Urbani” value [1]?
**A.** The value was 0.6.

**Q.** What about the “Binding of Control Serum Blood-Bank to Looped peptides of the protein M of SARS-CoV Urbani” value [2] of the same sequence?
**A.** Its value is 0.7.

**Q.** What about the “Binding of Control serum Blood-bank to linear peptides of the protein M of SARS-CoV Urbani” value [2] of the same sequence?
**A.** The value was 0.5.

**Q.** And the “Binding of Control serum LUMC to linear peptides of the protein M of SARS-CoV Urbani” value [2]?
**A.** Its value is 0.2.

**Q.** And the “Binding of Control serum LUMC to looped peptides of the protein M of SARS-CoV Urbani” value [2]?
**A.** Its value is 0.6.

**Q.** What about the “Rabbit serum linear peptides” value [3] of the same sequence?
**A.** The value was 0.3.

**Q.** What about the “Rabbit serum looped peptides” value [3] of the same sequence?
**A.** The value was 0.5.

**Q.** Which “Binding of serum 1a to linear peptides of protein X3 of SARS-CoV Urbani” value [1] does the source give for IWNLDVIISSIVRQL here?
**A.** Its value is 0.7.

**Q.** What about the “Binding of serum 1a to looped/cyclic peptides of protein X3 of SARS-CoV Urbani” value [1] of the same sequence?
**A.** The value was 0.5.

**Q.** What about the “Binding of serum 1b to linear peptides of protein X3 of SARS-CoV Urbani” value [1] of the same sequence?
**A.** Its value is 0.3.

**Q.** What about the “Binding of serum 1b to looped/cyclic peptides of protein X3 of SARS-CoV Urbani” value [1] of the same sequence?
**A.** The value was 0.4.

**Q.** And the “Binding of serum 2 to linear peptides of protein X3 of SARS-CoV Urbani” value [1]?
**A.** Its value is 0.5.

**Q.** And the “Binding of serum 2 to looped/cyclic peptides of protein X3 of SARS-CoV Urbani” value [1]?
**A.** The value was 0.5.

**Q.** And the “Binding of serum 6 to linear peptides of protein X3 of SARS-CoV Urbani” value [1]?
**A.** Its value is 0.5.

**Q.** What about the “Binding of serum 6 to looped/cyclic peptides of protein X3 of SARS-CoV Urbani” value [1] of the same sequence?
**A.** The value was 0.6.

**Q.** What about the “Binding of serum 37 to linear peptides of protein X3 of SARS-CoV Urbani” value [1] of the same sequence?
**A.** The value was 0.6.

**Q.** And the “Binding of serum 37 to looped/cyclic peptides of protein X3 of SARS-CoV Urbani” value [1]?
**A.** The value was 0.5.

**Q.** What about the “Binding of serum 62 to linear peptides of protein X3 of SARS-CoV Urbani” value [1] of the same sequence?
**A.** Its value is 0.6.

**Q.** What about the “Binding of serum 62 to looped/cyclic peptides of protein X3 of SARS-CoV Urbani” value [1] of the same sequence?
**A.** Its value is 0.4.

**Q.** And the “Binding of serum London to linear peptides of protein X3 of SARS-CoV Urbani” value [1]?
**A.** The value was 0.6.

**Q.** What about the “Binding of serum London to looped/cyclic peptides of protein X3 of SARS-CoV Urbani” value [1] of the same sequence?
**A.** Its value is 0.2.

**Q.** And the “Binding of serum SARS-green to linear peptides of protein X3 of SARS-CoV Urbani” value [1]?
**A.** Its value is 0.4.

**Q.** What about the “Binding of serum SARS-green to looped/cyclic peptides of protein X3 of SARS-CoV Urbani” value [1] of the same sequence?
**A.** Its value is 0.3.

**Q.** And the “Binding of serum SARS-yellow to linear peptides of protein X3 of SARS-CoV Urbani” value [1]?
**A.** Its value is 0.2.

**Q.** And the “Binding of serum SARS-yellow to looped/cyclic peptides of protein X3 of SARS-CoV Urbani” value [1]?
**A.** Its value is 0.6.

**Q.** And the “Binding of Control Serum Blood-Bank to Looped peptides of the protein X3 of SARS-CoV Urbani” value [2]?
**A.** The value was 0.7.

**Q.** And the “Binding of Control serum Blood-bank to linear peptides of the protein X3 of SARS-CoV Urbani” value [2]?
**A.** Its value is 0.6.

**Q.** And the “Binding of Control serum LUMC to linear peptides of the protein X3 of SARS-CoV Urbani” value [2]?
**A.** The value was 0.5.

**Q.** And the “Binding of Control serum LUMC to looped peptides of the protein X3 of SARS-CoV Urbani” value [2]?
**A.** The value was 0.7.

**Q.** What about the “Rabbit serum linear peptides” value [3] of the same sequence?
**A.** The value was 0.2.

**Q.** And the “Rabbit serum looped peptides” value [3]?
**A.** The value was 0.4.
